Key:
[1] = molecular target: T1, High affinity cGMP-specific 3',5'-cyclic phosphodiesterase 9A (Homo sapiens, UniProt O76083); test: Inhibition of human recombinant PDE9A expressed in Sf9 cells by SPA
[2] = molecular target: Dual specificity calcium/calmodulin-dependent 3',5'-cyclic nucleotide phosphodiesterase 1C (Homo sapiens, UniProt Q14123); test: Inhibition of human recombinant PDE1C expressed in Sf9 cells by SPA
[3] = Ratio of drug level in brain to plasma of rat; format: ADME, cell-free; conditions: brain and plasma
[4] = Inhibition of PDE6
[5] = molecular target: cGMP-inhibited 3',5'-cyclic phosphodiesterase 3A (Homo sapiens, UniProt Q14432); test: Inhibition of PDE3A
Mus musculus [6] = test: Increase in cGMP level in sc dosed CD1 mouse striatum after 30 mins; format: functional, organism-based
Mus musculus [7] = test: Increase in […] level in CD1 mouse striatum at 1 mg/kg, sc after 30 mins; format: functional; conditions: route subcutaneous
[8] = Inhibition of PDE2
[9] = molecular target: Dual 3',5'-cyclic-AMP and -GMP phosphodiesterase 11A (Homo sapiens, UniProt Q9HCR9); test: Inhibition of PDE11
Sequence of Dual 3',5'-cyclic-AMP and -GMP phosphodiesterase 11A (Q9HCR9 whole entry): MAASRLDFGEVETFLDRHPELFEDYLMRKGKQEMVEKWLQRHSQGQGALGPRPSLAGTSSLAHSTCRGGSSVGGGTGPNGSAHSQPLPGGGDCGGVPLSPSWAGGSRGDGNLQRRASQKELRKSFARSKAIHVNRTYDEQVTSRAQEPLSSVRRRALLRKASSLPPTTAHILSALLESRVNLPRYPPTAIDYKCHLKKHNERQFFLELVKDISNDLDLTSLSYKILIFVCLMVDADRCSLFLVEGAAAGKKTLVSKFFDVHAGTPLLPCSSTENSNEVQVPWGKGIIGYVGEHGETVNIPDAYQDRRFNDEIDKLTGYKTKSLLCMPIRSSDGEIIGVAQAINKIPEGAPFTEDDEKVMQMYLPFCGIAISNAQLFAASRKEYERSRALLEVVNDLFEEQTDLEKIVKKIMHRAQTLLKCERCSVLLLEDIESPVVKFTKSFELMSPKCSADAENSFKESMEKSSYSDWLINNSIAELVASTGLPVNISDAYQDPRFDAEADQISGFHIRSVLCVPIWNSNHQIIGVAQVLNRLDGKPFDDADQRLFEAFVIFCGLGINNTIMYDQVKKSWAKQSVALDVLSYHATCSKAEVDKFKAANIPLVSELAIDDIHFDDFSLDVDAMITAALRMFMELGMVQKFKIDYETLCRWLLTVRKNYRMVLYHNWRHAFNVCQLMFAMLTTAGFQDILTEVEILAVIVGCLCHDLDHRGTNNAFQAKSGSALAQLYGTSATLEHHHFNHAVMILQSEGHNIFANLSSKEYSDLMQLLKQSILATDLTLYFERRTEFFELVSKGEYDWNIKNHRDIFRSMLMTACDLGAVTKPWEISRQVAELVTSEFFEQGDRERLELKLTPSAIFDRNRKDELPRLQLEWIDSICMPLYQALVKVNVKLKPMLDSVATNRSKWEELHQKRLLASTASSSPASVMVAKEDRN

Mus musculus [10] = test: Increase in cGMP level in CD1 mouse striatum at 3.2 mg/kg, sc after 30 mins; format: functional; conditions: route subcutaneous
Mus musculus [11] = test: Increase in […] level in CD1 mouse striatum at 0.32 mg/kg, sc after 30 mins; format: functional; conditions: route subcutaneous
[12] = molecular target: 3',5'-cyclic-AMP phosphodiesterase 7B (Homo sapiens, UniProt Q9NP56); test: Inhibition of PDE7B
Sequence of 3',5'-cyclic-AMP phosphodiesterase 7B (Q9NP56 whole entry): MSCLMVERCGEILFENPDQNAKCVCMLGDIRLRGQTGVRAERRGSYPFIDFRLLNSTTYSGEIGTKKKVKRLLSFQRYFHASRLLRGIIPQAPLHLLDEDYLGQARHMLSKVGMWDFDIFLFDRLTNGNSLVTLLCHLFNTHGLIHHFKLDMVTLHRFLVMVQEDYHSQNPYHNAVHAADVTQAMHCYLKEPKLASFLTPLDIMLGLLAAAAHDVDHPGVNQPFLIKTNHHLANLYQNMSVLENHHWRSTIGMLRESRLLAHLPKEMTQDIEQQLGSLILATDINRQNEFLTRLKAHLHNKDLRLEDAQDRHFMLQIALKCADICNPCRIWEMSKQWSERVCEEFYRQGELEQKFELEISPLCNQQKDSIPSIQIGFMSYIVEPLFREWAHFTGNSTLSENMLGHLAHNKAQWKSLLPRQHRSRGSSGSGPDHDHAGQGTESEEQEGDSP

[13] = molecular target: 3',5'-cyclic-AMP phosphodiesterase 4C (Homo sapiens, UniProt Q08493); test: Inhibition of PDE4C
[14] = molecular target: High affinity cAMP-specific and IBMX-insensitive 3',5'-cyclic phosphodiesterase 8B (Homo sapiens, UniProt O95263); test: Inhibition of PDE8B
Sequence of High affinity cAMP-specific and IBMX-insensitive 3',5'-cyclic phosphodiesterase 8B (O95263 whole entry): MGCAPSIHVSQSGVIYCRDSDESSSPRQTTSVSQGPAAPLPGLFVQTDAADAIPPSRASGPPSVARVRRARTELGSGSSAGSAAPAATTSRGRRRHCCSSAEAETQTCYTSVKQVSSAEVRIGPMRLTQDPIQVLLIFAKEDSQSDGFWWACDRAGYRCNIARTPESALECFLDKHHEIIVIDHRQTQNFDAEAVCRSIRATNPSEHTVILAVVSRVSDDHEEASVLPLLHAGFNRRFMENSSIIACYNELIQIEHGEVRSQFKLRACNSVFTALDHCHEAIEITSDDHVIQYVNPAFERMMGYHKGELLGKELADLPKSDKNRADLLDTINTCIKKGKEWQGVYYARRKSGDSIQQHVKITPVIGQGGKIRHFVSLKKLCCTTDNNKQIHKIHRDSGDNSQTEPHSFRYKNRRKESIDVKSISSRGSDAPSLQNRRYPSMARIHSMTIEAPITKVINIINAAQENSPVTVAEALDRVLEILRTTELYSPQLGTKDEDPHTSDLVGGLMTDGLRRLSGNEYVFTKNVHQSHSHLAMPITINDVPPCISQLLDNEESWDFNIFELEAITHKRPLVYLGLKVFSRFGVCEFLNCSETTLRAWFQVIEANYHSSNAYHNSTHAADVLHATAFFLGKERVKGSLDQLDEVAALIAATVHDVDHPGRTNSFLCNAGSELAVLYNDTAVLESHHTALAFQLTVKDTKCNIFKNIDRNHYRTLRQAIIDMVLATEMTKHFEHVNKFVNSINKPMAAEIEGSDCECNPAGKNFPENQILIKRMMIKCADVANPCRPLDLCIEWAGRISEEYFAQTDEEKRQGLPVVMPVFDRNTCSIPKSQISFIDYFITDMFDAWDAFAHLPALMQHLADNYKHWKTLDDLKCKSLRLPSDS

[15] = molecular target: cAMP and cAMP-inhibited cGMP 3',5'-cyclic phosphodiesterase 10A (Homo sapiens, UniProt Q9Y233); test: Inhibition of PDE10
Sequence of cAMP and cAMP-inhibited cGMP 3',5'-cyclic phosphodiesterase 10A (Q9Y233 whole entry): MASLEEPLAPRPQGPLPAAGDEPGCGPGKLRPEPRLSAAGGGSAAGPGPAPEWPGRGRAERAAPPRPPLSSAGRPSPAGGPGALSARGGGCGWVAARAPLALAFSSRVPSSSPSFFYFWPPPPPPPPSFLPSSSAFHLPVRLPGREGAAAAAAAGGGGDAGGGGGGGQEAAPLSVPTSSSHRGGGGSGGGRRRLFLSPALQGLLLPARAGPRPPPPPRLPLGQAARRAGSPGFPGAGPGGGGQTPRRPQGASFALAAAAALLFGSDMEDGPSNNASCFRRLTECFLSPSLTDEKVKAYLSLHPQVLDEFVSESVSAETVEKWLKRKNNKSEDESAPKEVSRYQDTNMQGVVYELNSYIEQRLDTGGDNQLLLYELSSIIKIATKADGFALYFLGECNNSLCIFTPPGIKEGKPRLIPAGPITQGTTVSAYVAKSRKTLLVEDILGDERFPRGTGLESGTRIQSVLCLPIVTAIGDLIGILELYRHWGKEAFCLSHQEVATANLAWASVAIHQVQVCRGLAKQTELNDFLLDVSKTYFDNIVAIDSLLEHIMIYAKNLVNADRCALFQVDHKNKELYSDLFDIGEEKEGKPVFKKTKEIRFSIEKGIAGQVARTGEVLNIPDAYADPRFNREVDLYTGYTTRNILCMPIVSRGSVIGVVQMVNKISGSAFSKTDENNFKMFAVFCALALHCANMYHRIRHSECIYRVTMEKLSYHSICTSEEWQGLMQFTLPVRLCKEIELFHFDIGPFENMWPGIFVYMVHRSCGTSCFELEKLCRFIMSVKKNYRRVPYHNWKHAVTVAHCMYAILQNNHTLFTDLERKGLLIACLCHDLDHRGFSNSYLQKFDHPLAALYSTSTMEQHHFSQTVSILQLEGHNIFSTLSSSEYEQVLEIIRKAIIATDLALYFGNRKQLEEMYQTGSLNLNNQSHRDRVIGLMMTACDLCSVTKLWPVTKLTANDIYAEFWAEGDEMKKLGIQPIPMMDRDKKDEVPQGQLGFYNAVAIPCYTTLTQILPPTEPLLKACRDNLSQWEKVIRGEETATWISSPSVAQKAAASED

[16] = molecular target: cGMP-specific 3',5'-cyclic phosphodiesterase (Homo sapiens, UniProt O76074); test: Inhibition of PDE5
Mus musculus [17] = test: Increase in […] level in CD1 mouse striatum at 10 mg/kg, sc after 30 mins; format: functional; conditions: route subcutaneous
[18] = molecular target: T1, High affinity cGMP-specific 3',5'-cyclic phosphodiesterase 9A; test: Binding affinity to PDE9A

T1 sequence (O76083 whole entry): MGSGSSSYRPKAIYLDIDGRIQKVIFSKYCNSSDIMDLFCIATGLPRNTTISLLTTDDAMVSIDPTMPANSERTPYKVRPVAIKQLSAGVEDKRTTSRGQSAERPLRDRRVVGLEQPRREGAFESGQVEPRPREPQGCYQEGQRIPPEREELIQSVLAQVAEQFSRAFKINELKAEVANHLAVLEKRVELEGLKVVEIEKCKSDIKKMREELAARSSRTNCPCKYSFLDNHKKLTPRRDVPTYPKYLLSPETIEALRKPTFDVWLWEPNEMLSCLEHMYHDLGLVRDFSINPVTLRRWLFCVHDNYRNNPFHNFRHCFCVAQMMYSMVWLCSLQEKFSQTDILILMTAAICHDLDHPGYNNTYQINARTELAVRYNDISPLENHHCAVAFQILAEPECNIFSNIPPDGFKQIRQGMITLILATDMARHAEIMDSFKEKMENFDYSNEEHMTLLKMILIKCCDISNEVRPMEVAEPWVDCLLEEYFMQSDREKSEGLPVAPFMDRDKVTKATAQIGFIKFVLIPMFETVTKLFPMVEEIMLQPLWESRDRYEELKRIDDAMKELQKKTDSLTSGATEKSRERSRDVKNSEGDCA
Sequence of Dual specificity calcium/calmodulin-dependent 3',5'-cyclic nucleotide phosphodiesterase 1C (Q14123 whole entry): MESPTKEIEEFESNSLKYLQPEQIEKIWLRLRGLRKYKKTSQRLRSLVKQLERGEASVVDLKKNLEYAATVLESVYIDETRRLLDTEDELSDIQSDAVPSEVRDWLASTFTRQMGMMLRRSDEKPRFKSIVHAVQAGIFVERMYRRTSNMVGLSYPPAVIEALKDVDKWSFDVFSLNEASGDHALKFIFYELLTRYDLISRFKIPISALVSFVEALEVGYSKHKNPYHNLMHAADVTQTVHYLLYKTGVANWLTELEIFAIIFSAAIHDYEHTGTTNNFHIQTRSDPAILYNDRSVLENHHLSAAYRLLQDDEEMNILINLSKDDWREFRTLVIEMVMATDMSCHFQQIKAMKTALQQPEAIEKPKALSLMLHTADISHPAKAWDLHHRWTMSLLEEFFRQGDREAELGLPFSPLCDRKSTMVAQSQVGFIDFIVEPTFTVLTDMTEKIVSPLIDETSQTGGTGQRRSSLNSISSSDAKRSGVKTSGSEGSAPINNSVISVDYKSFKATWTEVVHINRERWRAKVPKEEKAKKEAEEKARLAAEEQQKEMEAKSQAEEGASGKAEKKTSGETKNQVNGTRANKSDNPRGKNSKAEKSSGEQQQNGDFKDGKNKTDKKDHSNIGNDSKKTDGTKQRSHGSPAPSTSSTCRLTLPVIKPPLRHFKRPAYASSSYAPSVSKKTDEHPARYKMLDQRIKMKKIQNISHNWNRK

Row | Compound | IC50 ([1]; read-out: IC50) | IC50 [2] | also measured
1 | Cn1cc(-c2ccncc2)c(-c2ccc(OCc3ccc4ccccc4n3)cc2)n1 |  |  | Activity [18]: 2.1 nM
2 | C[C@@H]1CN(Cc2cn3ccccc3n2)C[C@H]1c1nc2c(cnn2C2CCCC2)c(=O)[nH]1 (relative stereo) | 12 nM | 220 nM | 
3 | CC(C)n1ncc2c(=O)[nH]c([C@@H]3CN(Cc4ccccc4)C[C@H]3C)nc21 (relative stereo) |  | 2100 nM | 
4 | C[C@@H]1CN(Cc2ccccc2)C[C@H]1c1nc2c(cnn2C2CCCC2)c(=O)[nH]1 (relative stereo) | 63 nM | 970 nM | 
5 | Cc1cccc(CN2C[C@@H](C)[C@H](c3nc4c(cnn4C4CCCC4)c(=O)[nH]3)C2)c1 (relative stereo) | 40 nM | 563 nM | IC50 ([1]; read-out: pIC50 (converted)): 38 nM
6 | COc1ccc(CN2C[C@@H](C)[C@H](c3nc4c(cnn4C4CCCC4)c(=O)[nH]3)C2)cn1 (relative stereo) | 29 nM | 270 nM | 
7 | CC(C)Cn1ncc2c(=O)[nH]c([C@@H]3CN(Cc4ccccc4)C[C@H]3C)nc21 (relative stereo) | 150 nM | 1500 nM | 
8 | Cc1ncc(CN2C[C@@H](C)[C@H](c3nc4c(cnn4C4CCCC4)c(=O)[nH]3)C2)cn1 (relative stereo) | 11 nM | 400 nM | 
9 | C[C@@H]1CN(Cc2ccccn2)C[C@H]1c1nc2c(cnn2C2CCCC2)c(=O)[nH]1 (relative stereo) | 200 nM | 1300 nM | 

Now from value to compound, other results behind:

Row | IC50 ([1]; read-out: IC50) | IC50 [2] | Compound | also measured
10 | 16 nM | 190 nM | C[C@@H]1CN(Cc2ccc(C(F)(F)F)nc2)C[C@H]1c1nc2c(cnn2C2CCCC2)c(=O)[nH]1 | 
11 | 1.8 nM | 50 nM | C[C@@H]1CN(Cc2ccc3nccnc3c2)C[C@H]1c1nc2c(cnn2C2CCCC2)c(=O)[nH]1 | Kp [3]: 1.4; IC50 [4]: 127 nM; IC50 [5]: > 1000 nM; Activity (Mus musculus [6]): Dose-dependent effect; Activity (Mus musculus [7]): 119%; IC50 [8]: > 1000 nM; IC50 [9]: > 1000 nM; Activity (Mus musculus [10]): 145%; Activity (Mus musculus [11]): 110%; IC50 [12]: > 1000 nM; IC50 [13]: > 1000 nM; IC50 [14]: > 1000 nM; IC50 [15]: > 1000 nM; IC50 [16]: 349 nM; Activity (Mus musculus [17]): 215%
12 | 1.9 nM | 73 nM | C[C@H]1CN(Cc2ccc3nccnc3c2)C[C@@H]1c1nc2c(cnn2C2CCCC2)c(=O)[nH]1 (relative stereo) | 
13 | 15 nM | 210 nM | Cc1cnc(CN2C[C@@H](C)[C@H](c3nc4c(cnn4C4CCCC4)c(=O)[nH]3)C2)cn1 (relative stereo) | 
14 | 11 nM | 200 nM | Cc1cc(CN2C[C@@H](C)[C@H](c3nc4c(cnn4C4CCCC4)c(=O)[nH]3)C2)n(C)n1 (relative stereo) | 
15 | 11 nM | 110 nM | Cc1cc(CN2C[C@@H](C)[C@H](c3nc4c(cnn4C4CCCC4)c(=O)[nH]3)C2)no1 (relative stereo) | 

— ChEMBL document CHEMBL1154708, “Identification of a brain penetrant PDE9A inhibitor utilizing prospective design and chemical enablement as a rapid lead optimization strategy” (J Med Chem, 2009)
